Laboratory results: ChEMBL document CHEMBL3045849, “Mode of inhibition of acetylcholinesterase by monoterpenoids and implications for pest control” (Ind Crops Prod, 2010)
Active and inactive are the calls of the source. The calls are words filed in the database; no cut-off is given here.

What was measured:
[1] = target: Acetylcholinesterase (Electrophorus electricus) (UniProt O42275); assay: Mixed type inhibition of Electrophorus electricus (electric eel) acetylcholinesteraseAChE using acetylthiocholine iodide substrate by Ellman method based colorimetry
Acetylcholinesterase (Electrophorus electricus), sequence (O42275 24-633 limits assumed): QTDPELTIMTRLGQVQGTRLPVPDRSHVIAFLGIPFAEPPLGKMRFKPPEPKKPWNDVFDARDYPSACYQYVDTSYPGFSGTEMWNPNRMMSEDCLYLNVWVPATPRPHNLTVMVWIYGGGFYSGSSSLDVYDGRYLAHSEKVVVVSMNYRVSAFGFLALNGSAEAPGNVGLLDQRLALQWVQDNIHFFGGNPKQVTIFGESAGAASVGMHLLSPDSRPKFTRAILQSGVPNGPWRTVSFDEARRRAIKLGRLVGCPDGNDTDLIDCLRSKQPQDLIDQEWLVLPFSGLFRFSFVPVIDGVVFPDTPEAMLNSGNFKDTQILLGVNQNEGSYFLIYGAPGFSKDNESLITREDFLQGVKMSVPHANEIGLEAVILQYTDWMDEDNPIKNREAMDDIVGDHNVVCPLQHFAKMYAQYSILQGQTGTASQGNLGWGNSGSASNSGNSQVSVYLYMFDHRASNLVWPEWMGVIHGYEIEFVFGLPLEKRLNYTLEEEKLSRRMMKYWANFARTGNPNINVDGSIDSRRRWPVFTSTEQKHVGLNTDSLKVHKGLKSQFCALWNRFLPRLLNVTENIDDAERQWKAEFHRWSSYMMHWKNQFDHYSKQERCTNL

[2] = target: Acetylcholinesterase (Electrophorus electricus) (UniProt O42275); assay: Reversible inhibition of Electrophorus electricus (electric eel)acetylcholinesterase (AChE) using acetylthiocholine iodide substrate by Ellman method based colorimetry
Acetylcholinesterase = Acetylcholinesterase (Electrophorus electricus, UniProt O42275); assay: Inhibition of Electrophorus electricus (electric eel) acetylcholinesterase (AChE) using acetylthiocholine iodide substrate by Ellman method based colorimetry
Acetylcholinesterase, sequence (O42275 whole entry): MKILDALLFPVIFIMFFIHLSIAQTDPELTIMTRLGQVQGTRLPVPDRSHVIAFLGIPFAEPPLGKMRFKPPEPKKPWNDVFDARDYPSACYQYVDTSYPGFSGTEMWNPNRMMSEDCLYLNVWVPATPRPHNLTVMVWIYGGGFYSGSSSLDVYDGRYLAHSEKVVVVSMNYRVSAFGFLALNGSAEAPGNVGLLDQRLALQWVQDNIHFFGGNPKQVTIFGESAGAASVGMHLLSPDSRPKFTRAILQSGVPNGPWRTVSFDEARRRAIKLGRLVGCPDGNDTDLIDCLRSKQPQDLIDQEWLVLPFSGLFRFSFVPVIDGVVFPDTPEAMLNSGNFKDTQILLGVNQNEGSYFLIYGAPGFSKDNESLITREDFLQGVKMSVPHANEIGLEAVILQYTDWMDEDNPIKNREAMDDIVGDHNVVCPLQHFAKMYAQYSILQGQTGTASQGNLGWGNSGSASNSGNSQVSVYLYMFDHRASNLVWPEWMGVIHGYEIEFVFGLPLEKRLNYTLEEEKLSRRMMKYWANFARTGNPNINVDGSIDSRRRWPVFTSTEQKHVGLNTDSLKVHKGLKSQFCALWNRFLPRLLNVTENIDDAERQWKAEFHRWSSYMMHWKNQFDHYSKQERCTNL

[3] = target: Acetylcholinesterase (Electrophorus electricus) (UniProt O42275); assay: Competitive inhibition of Electrophorus electricus (electric eel) acetylcholinesterase (AChE) using acetylthiocholine iodide substrate by Ellman method based colorimetry
[4] = target: Acetylcholinesterase (Electrophorus electricus) (UniProt O42275); assay: Inhibition of Electrophorus electricus (electric eel) acetylcholinesterase (AChE) at 100 mM using 10 mM acetylthiocholine iodide substrate after 15 min by Ellman method based colorimetry
[5] = target: Acetylcholinesterase (Electrophorus electricus) (UniProt O42275); assay: Inhibition of Electrophorus electricus (electric eel) acetylcholinesterase (AChE) at 50 mM using 5 mM acetylthiocholine iodide substrate after 15 min by Ellman method based colorimetry
[6] = target: Acetylcholinesterase (Electrophorus electricus) (UniProt O42275); assay: Inhibition of Electrophorus electricus (electric eel) acetylcholinesterase (AChE) at 10 mM using 2 mM acetylthiocholine iodide substrate after 15 min by Ellman method based colorimetry
[7] = target: Acetylcholinesterase (Electrophorus electricus) (UniProt O42275); assay: Inhibition of Electrophorus electricus (electric eel) acetylcholinesterase (AChE) at 1 mM using 1 mM acetylthiocholine iodide substrate after 15 min by Ellman method based colorimetry

| Structure (SMILES) | inhibition [1] | inhibition [2] | Ki (Acetylcholinesterase; read-out: Ki) | Ki (Acetylcholinesterase) | inhibition [3] | inhibition [4] | inhibition [5] | inhibition [6] | inhibition [7] |
| --- | --- | --- | --- | --- | --- | --- | --- | --- | --- |
| C=C(C)[C@H]1CC=C(C)C(=O)C1 [(S)(+)CARVONE] | Active | Active | 300 µM |  |  |  |  |  |  |
| C/C=C/c1ccc(OC)cc1 [ANETHOLE] |  | Active |  | Not Active |  |  |  |  |  |
| CC12CCC(CC1=O)C2(C)C (configuration not stated) [CAMPHOR] | Active | Active | 50 µM |  |  |  |  |  |  |
| C=CCc1ccc(OC)cc1 [ESTRAGOLE] | Active | Active | 150 µM |  |  |  |  |  |  |
| CC12CCC(C1)C(C)(C)C2=O (configuration not stated) [FENCHONE] |  | Active | 400 µM |  | Active | 90.7% | 84.1% | 79.8% | 53.8% |
| CC1=CCC(C(C)C)=CC1 [GAMMA-TERPINENE] |  | Active | 200 µM |  | Active |  |  |  |  |
| CC(C)=CCC/C(C)=C/CO [GERANIOL] |  | Active | 100 µM |  | Active |  |  |  |  |
| C=CC(C)(O)CCC=C(C)C (configuration not stated) [LINALOOL] |  | Active | 300 µM |  | Active |  |  |  |  |
